Entries after “also recorded” stand apart in the source; their conditions may differ.
Columns and labels:
ZeMPCs = experiment: Calcium imaging in Fura-2, AM treated ZeMPCs (single-cell imaging); assay type: cell-based, zebrafish; conditions: 10 μM NFA, 5 μM LPA, 10 μM ionomycin; 10-20 seconds after loading
Description: Fura-2, AM treated ZeMPCs were exposed to 10 μM NFA, 5 μM LPA, 10 μM lonomycin (as a positive control) and DMSO (as vehicle control) to visualize their effect on intracellular calcium ion concentration using single-cell imaging. […] Scale bar 50 μm.
(§1) The ZeMPCs and C2C12 cells were incubated with Fura-2, AM (Thermo Fisher Sci F1225), a cell permeant fluorescent calcium ion indicator, for 45 minutes at 28.5° C. and 37° C., respectively, followed by imaging with Celldiscoverer7 Microscope (Zeiss). 20 seconds after imaging initiation the treatment was added to the cells and continued for a total of 2-3 minutes.

[1] = tested on: Zebrafish myogenic progenitor cells (ZeMPCs); experiment: Limiting dilution engraftment assay (ELDA): cells treated ex vivo, transplanted into adult zebrafish, imaged at 7 dpt; assay type: in vivo
Description: Donor cells were derived from embryos that contained a GFP cassette driven by the promoter for mylz2, a muscle-specific structural protein. Recipients were optically clear, immunocompromised adult prkdc−/− zebrafish. To perform a limiting dilution assay, three doses (n=100, 200, and 400 cells) were administered per treatment (n=10 engraftment events per treatment-dose combination). The estimated engrafting cell frequency was calculated using the Extreme Limiting Dilution Analysis (ELDA, Hu et. al. 2009), which provides the most likely estimate (MLE) of engrafting cell frequency.
Given that this group of 230 lipids is too many to be examined in mice, transplantation efficiency was instead examined via limit-dilution assays in 15 recipient zebrafish per compound after a brief (4 hour) ex vivo chemical exposure. Positive hits from this primary screening were rescreened in replicate transplantation experiments incorporating dose response testing.
Lipids are frequently found to enhance cell migration and homeostasis in blood and muscle tissue (Cencetti et al., 2014; Lahvic et al., 2018; Li et al., 2015; Oh et al., 2016), and so it was elected to screen mainly bioactive lipids in efforts to identify compounds that enhance ZeMPCs engraftment efficiency in vivo. Myogenic progenitor cells were treated for 4 hours with one of the 188 unique lipid compounds contained in the ICCB Known Bioactives Library. Compound-treated cells were then harvested and transplanted intramuscularly into both flanks of 5 different casper recipient fish, with transplants performed at each of 3 transplanted cell doses (25, 75 or 150 cells). In these studies, recipient fish received split-dose irradiation of 15 Gy at 2 days and 1 day prior to transplantation to suppress any immune responses to the transplanted cells. Engraftment efficiency was measured by imaging casper recipients at 7 dpt (FIG. 18A). […] For this secondary screening approach, cells were transplanted into prkdc^D3612ls casper fish, which are deficient in mature T and B cells, and assayed engraftment efficiency in the recipient fish 7 days post-transplantation. Two compounds were identified, lysophosphatidic acid (LPA) and niflumic acid (NFA), which increased ZeMPC engraftment efficiency in both of these assay systems (FIG. 12B).
Lipids from the ICCB Known Bioactives Library (enzolifesciences.com/BML-2840/iccb-known-bioactives-library) were diluted at a 1:100 ratio in transplantation media (zESC medium without bFGF and FBS) and added to prewashed in vitro expanded muscle cells. NFA (Cayman and Santa Cruz Biotechnology) and LPA (Cayman and Santa Cruz Biotechnology) were used for the secondary confirmation screening experiments. […] 4- to 8-month-old casper recipients received split-dose irradiation of 15 Gy each, either 2 days or 1 day before transplantation. For LDA screening, cells were transplanted into each side of 5 pre-irradiated casper recipient fish or 5 non-irradiated prkdc-mutant recipient zebrafish. At 7 dpt, the recipients were anaesthetized using a previously described method (Dang et al., 2016) and imaged using a fluorescent stereo microscope (Leica M165 FC). Successful engraftment was defined as the presence of GFP+ fibers. Variation in different experiments is caused by inherent variability in the in vitro ZeMPC derivation procedure, which results in differences in engrafting cell frequency across different derivation attempts. To mitigate the impact of such experimental variation on screening results, only LDA results for cells derived from the same cultures were compared. Comparison to a vehicle-treated experimental control was included in every transplantation experiment. Next, the chemical treated cell potency and vehicle-treated cell potency was measured using the Extreme Limiting Dilution Analysis (ELDA) software (Hu and Smyth, 2009). The ratio of the treated cell potency and vehicle-treated cell potency determine the engraftment efficiency fold increase value.

C2C12 cells = experiment: Calcium imaging in Fura-2, AM treated C2C12 cells (single-cell imaging); assay type: cell-based, mouse; conditions: 10 μM NFA, 5 μM LPA; 10-20 seconds after loading
Description: Fura-2, AM treated C2C12 cells were exposed to 10 μM NFA, 5 μM LPA or DMSO as vehicle control to visualize the effect on intracellular calcium ion concentration using single-cell imaging. […] Scale bar 50 μm.
as §1

Compound	intracellular calcium ion concentration (ZeMPCs)	engraftment efficiency of treated ZeMPCs ([1]; prkdc-mutant zebrafish, vs vehicle-treated controls)	intracellular calcium ion concentration (C2C12 cells)	engraftment frequency ([1]; concurrent injection of donor cells with 10 uM MFA)	estimated engrafting cell frequency / engraftment ([1]; donor cells treated 2 hours with 10 uM MFA before transplantation, vs vehicle, p=0.0367)
C[C@H](CCC(=O)O)C[C@H](C)C[C@H](C)C(=O)/C=C(\O)[C@H](C)C[C@H](C)C/C=C/[C@@H](C)[C@@H](O)[C@@H](C)[C@@H](O)C[C@@H]1CC[C@@](C)([C@H]2CC[C@@](C)([C@@H](C)O)O2)O1 [ionomycin]	increase	increased the engraftment efficiency	increase	–	–
Cc1ccc(Cl)c(Nc2ccccc2C(=O)O)c1Cl [MFA, meclofenamic acid]	–	–	–	not sufficient to increase engraftment frequency	increase the engraftment capacity; also recorded: optimally increase engraftment; also recorded: higher

From patent US12097174B2, “Methods and agents that enhance myogenic progenitor cell engraftment” (President and Fellows of Harvard College, priority 2018, dated 2024)
